One experiment has as its target IRAK4 (Homo sapiens (Human), UniProt Q9NWZ3). Nature of the experiment: IRAK4 Inhibition Assay. The format is biochemical. The note with it: ATP 500 μM; IRAK4 0.6 nM; 60 min room temperature. The essentials: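 Reaction started by combining IRAK4 with substrates and compound, run 60 min at room temperature and stopped with 35 mM EDTA. Fluorescent substrate and phosphorylated product were separated electrophoretically on a Caliper LabChip; inhibition normalized to no-enzyme (100%) and vehicle-only (0%) controls.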

For experiment [1], the system named is TLR2 agonist-stimulated IL-6 in human whole blood. Nature of the experiment: IRAK4 Whole Blood Assay. The class given is cell-based. To be noted: lipoteichoic acid 10 μg/mL, 5 hours, IL-6 levels. The protocol:
Human whole blood containing the anti-coagulant ACD-A was plated in 384-well plate (25 μL/well) and incubated with compounds for 60 minutes at 37° C. in a 5% CO2 incubator. The blood was stimulated with a TLR2 agonist, 10 μg/mL final concentration of lipoteichoic acid (Invivogen, San Diego, CA) in 25 μL RPMI (Gibco) for 5 hours in a 5% CO2 incubator. At the end of the incubation, plates were centrifuged at 2300 rpm for 5 minutes. Supernatants were harvested and analyzed for IL-6 levels by Flow Cytometry beads assay (BD Biosciences, San Jose, CA).

The target in the next experiment is JAK3 kinase (Homo sapiens (Human), UniProt P52333). The experiment in a line: JAK3 Homogeneous Time Resolved Fluorescence (HTRF) Assay. The format is binding. To be noted: for IC50: competition binding with fluorescein-labeled ATP competitive probe; for Ratio of JAK3 IC50 to IRAK4 IC50: selectivity for IRAK4 over JAK3. In outline:
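TR-FRET competition binding: 1 nM His- or GST-tagged JAK3 with 0.2 nM Tb-labeled anti-tag antibody, fluorescein ATP-competitive probe at its Kd, and compound for one hour. FRET read at 495/520 nm, normalized to no-compound signal. IC50 from 11 concentrations, 4-parameter logistic fit.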
(In general: TR-FRET usually uses a lanthanide donor and a delayed reading to cut background.)

JAK3 kinase, sequence (P52333 whole entry): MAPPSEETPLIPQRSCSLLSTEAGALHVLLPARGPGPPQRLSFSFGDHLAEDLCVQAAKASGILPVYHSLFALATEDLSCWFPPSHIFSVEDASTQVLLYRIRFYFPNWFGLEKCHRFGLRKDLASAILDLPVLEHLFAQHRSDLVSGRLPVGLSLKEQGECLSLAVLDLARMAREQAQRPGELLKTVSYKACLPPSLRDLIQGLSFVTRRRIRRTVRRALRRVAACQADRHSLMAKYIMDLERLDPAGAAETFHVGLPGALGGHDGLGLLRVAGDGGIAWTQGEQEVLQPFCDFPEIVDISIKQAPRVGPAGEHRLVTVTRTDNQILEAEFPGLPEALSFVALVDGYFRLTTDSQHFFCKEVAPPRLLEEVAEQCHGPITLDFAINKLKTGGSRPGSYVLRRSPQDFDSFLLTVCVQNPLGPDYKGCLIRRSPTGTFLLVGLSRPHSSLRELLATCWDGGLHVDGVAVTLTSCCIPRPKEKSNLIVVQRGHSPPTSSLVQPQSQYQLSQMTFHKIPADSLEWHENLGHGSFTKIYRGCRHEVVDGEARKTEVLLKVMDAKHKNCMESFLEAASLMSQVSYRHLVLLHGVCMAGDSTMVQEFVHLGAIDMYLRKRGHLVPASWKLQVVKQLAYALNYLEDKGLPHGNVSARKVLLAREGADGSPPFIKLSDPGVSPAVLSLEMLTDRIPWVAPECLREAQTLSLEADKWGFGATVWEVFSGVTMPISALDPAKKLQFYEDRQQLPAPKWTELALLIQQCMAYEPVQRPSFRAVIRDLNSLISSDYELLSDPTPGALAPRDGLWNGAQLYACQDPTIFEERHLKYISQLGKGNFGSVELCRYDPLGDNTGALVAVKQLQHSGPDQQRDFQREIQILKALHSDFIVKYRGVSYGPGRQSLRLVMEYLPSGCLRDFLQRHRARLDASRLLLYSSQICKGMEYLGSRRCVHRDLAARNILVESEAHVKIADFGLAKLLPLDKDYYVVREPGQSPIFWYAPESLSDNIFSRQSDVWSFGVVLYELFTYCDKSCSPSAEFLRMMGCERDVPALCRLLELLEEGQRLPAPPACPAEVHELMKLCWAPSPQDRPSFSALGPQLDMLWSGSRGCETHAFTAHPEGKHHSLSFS
IRAK4, sequence (Q9NWZ3 whole entry, species assumed): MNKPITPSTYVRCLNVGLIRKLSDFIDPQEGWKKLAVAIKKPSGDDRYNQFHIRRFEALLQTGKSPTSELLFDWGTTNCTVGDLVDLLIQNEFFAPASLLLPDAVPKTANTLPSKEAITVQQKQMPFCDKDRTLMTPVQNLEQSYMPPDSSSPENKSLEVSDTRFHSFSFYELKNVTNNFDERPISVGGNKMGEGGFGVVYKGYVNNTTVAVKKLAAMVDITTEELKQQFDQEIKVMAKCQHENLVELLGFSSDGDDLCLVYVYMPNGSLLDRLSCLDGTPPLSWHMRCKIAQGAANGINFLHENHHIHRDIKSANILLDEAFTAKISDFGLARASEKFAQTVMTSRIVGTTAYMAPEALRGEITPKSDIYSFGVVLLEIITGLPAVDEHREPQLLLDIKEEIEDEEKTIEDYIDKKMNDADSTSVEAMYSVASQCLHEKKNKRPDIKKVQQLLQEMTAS

Turning to `CC(C)Nc1c(C(=O)NC[C@@H](F)C(C)(C)O)cnn2cc(-c3cn[nH]c3)cc12` [Example 34, (R)—N-(2-fluoro-3-hydroxy-3-methylbutyl)-4-(isopropylamino)-6-(1H-pyrazol-4-yl) pyrrolo[1,2-b]pyridazine-3-carboxamide], the IC50 (as a rule, the concentration needed to halve the response being measured) on IRAK4 was 6.7 nM; in experiment [1], above 10000 nM; at JAK3 kinase, above 10000 nM. The “Ratio of JAK3 IC50 to IRAK4 IC50” value on JAK3 kinase was above 1493.

`CC(C)Nc1c(C(=O)N[C@H]2CC[C@H](NC(=O)CO)CC2)cnn2cc(-c3ccncc3F)cc12` [Example 68, 6-(3-fluoropyridin-4-yl)-N-((1r,4r)-4-(2-hydroxyacetamido)cyclohexyl)-4-(isopropylamino)pyrrolo[1,2-b]pyridazine-3-carboxamide]: the IC50 at IRAK4 was 6.5 nM; in experiment [1], 4100 nM; on JAK3 kinase, above 50000 nM. In addition, at JAK3 kinase, the “Ratio of JAK3 IC50 to IRAK4 IC50” value was above 7692.

With `CC(C)Nc1c(C(=O)N[C@H]2CC[C@H](C(=O)N3CCOCC3)CC2)cnn2cc(-c3ccncc3F)cc12` [Example 84, 6-(3-fluoropyridin-4-yl)-4-(isopropylamino)-N-((1r,4r)-4-(morpholine-4-carbonyl)cyclohexyl)pyrrolo[1,2-b]pyridazine-3-carboxamide], the IC50 is 2.7 nM at IRAK4, 1040 nM in experiment [1] and above 50000 nM on JAK3 kinase. Further, the “Ratio of JAK3 IC50 to IRAK4 IC50” value at JAK3 kinase is on record as above 18519.

`COC(=O)N[C@H]1CC[C@H](NC(=O)c2cnn3cc(-c4cccnc4)cc3c2NC(C)C)CC1` [Example 49, methyl ((1r,4r)-4-(4-(isopropylamino)-6-(pyridin-3-yl)pyrrolo[1,2-b]pyridazine-3-carboxamido)cyclohexyl)carbamate]: the IC50 was 11.3 nM on IRAK4, above 10000 nM in experiment [1] and above 50000 nM at JAK3 kinase. Besides, the “Ratio of JAK3 IC50 to IRAK4 IC50” value at JAK3 kinase is recorded as above 4425.

Regarding `CC(=O)N[C@H]1CC[C@H](NC(=O)c2cnn3cc(-c4ccncc4)nc3c2NC(C)C)CC1` [Example 108, N-((1r,4r)-4-acetamidocyclohexyl)-8-(isopropylamino)-2-(pyridin-4-yl)imidazo[1,2-b]pyridazine-7-carboxamide], the IC50 at IRAK4 was 11 nM; in experiment [1], 890 nM; on JAK3 kinase, around 49000 nM. Moreover, the “Ratio of JAK3 IC50 to IRAK4 IC50” value at JAK3 kinase was around 4455.

`CC(=O)N[C@H]1CC[C@H](NC(=O)c2cnn3cc(-c4cnccc4C)cc3c2NC(C)C)CC1` [Example 70, N-((1r,4r)-4-acetamidocyclohexyl)-4-(isopropylamino)-6-(4-methylpyridin-3-yl)pyrrolo[1,2-b] pyridazine-3-carboxamide]: the IC50 is 14 nM on IRAK4, above 10000 nM in experiment [1] and above 50000 nM at JAK3 kinase. Further, the “Ratio of JAK3 IC50 to IRAK4 IC50” value on JAK3 kinase was above 3571.

For the compound `CC(C)Nc1c(C(=O)NC[C@@H](F)C(C)(C)O)cnn2cc(-c3cccc(C#N)c3)cc12` [Example 2, (R)-6-(3-cyanophenyl)-N-(2-fluoro-3-hydroxy-3-methylbutyl)-4-(isopropylamino) pyrrolo[1,2-b]pyridazine-3-carboxamide], the IC50 is 12 nM at IRAK4 and above 10000 nM in experiment [1].

Consider `CC(=O)N[C@H]1CC[C@H](NC(=O)c2cnn3cc(-c4ccc(C#N)cc4)cc3c2NC(C)C)CC1` [Example 81, N-((1r,4r)-4-acetamidocyclohexyl)-6-(4-cyanophenyl)-4-(isopropylamino)pyrrolo[1,2-b]pyridazine-3-carboxamide], for which the IC50 was 12 nM on IRAK4, above 20000 nM in experiment [1] and above 50000 nM at JAK3 kinase. Further, the “Ratio of JAK3 IC50 to IRAK4 IC50” value on JAK3 kinase is listed as above 4167.

Turning to `CC(C)Nc1c(C(=O)N[C@H]2CC[C@H](c3nc[nH]n3)CC2)cnn2cc(-c3ccncc3F)cc12` [Example 93, N-((1r,4r)-4-(1H-1,2,4-triazol-3-yl)cyclohexyl)-6-(3-fluoropyridin-4-yl)-4-(isopropylamino)pyrrolo[1,2-b]pyridazine-3-carboxamide], the IC50 on IRAK4 was 2.3 nM; in experiment [1], 1040 nM; on JAK3 kinase it was above 50000 nM. In addition, the “Ratio of JAK3 IC50 to IRAK4 IC50” value at JAK3 kinase is given as above 21739.

Regarding `CC(=O)N[C@H]1CC[C@H](NC(=O)c2cnn3cc(-c4ccncc4)cc3c2NC(C)C)CC1` [Example 50, N-((1r,4r)-4-acetamidocyclohexyl)-4-(isopropylamino)-6-(pyridin-4-yl)pyrrolo[1,2-b]pyridazine-3-carboxamide], the half-inhibitory concentration (IC50) is 2.1 nM at IRAK4, 900 nM in experiment [1] and around 39000 nM at JAK3 kinase. The “Ratio of JAK3 IC50 to IRAK4 IC50” value on JAK3 kinase is around 18571.

On to `CC(C)Nc1c(C(=O)NCCC(C)(C)O)cnn2cc(-c3ccncc3F)cc12` [Example 77, 6-(3-fluoropyridin-4-yl)-N-(3-hydroxy-3-methylbutyl)-4-(isopropylamino)pyrrolo[1,2-b]pyridazine-3-carboxamide], for which the results for the concentration for half-maximal inhibition (IC50) (at IRAK4; in experiment [1]) were 4.3 nM and 1310 nM, respectively.

With `CCOC(=O)N[C@H]1CC[C@H](NC(=O)c2cnn3cc(-c4ccncc4F)cc3c2NC(C)C)CC1` [Example 67, ethyl ((1r,4r)-4-(6-(3-fluoropyridin-4-yl)-4-(isopropylamino)pyrrolo[1,2-b]pyridazine-3-carboxamido)cyclohexyl)carbamate], the half-maximal inhibitory concentration (IC50) at IRAK4 came to 13 nM. Besides, on JAK3 kinase, the IC50 is above 50000 nM and the “Ratio of JAK3 IC50 to IRAK4 IC50” value came out at 3846.

Take `CC(C)Nc1c(C(=O)NC[C@@H](F)C(C)(C)O)cnc2cc(-c3ccc(C#N)cc3)nn12` [Example 141, (R)-2-(4-cyanophenyl)-N-(2-fluoro-3-hydroxy-3-methylbutyl)-7-(isopropylamino)pyrazolo[1,5-a]pyrimidine-6-carboxamide]: the IC50 at IRAK4 is 11 nM. Moreover, on JAK3 kinase, the IC50 was above 50000 nM and the “Ratio of JAK3 IC50 to IRAK4 IC50” value is given as above 4545.

For `CC(=O)N[C@H]1CC[C@H](NC(=O)c2cnn3cc(-c4cnc(F)cc4C)cc3c2NC(C)C)CC1` [Example 75, N-((1r,4r)-4-acetamidocyclohexyl)-6-(6-fluoro-4-methylpyridin-3-yl)-4-(isopropylamino)pyrrolo[1,2-b]pyridazine-3-carboxamide], the half-maximal inhibitory concentration (IC50) at IRAK4 was 5.8 nM. In addition, on JAK3 kinase, the half-inhibitory concentration (IC50) is around 22000 nM and the “Ratio of JAK3 IC50 to IRAK4 IC50” value is around 3793.

In the case of `CC(C)Nc1c(C(=O)NC[C@@H](F)C(C)(C)O)cnn2cc(Nc3ccncn3)cc12` [Example 43, (R)—N-(2-fluoro-3-hydroxy-3-methylbutyl)-4-(isopropylamino)-6-(pyrimidin-4-ylamino) pyrrolo[1,2-b] pyridazine-3-carboxamide], the IC50 on IRAK4 is 81 nM. For the same compound, at JAK3 kinase, the IC50 was above 50000 nM and the “Ratio of JAK3 IC50 to IRAK4 IC50” value is on record as above 617.

With `CC(C)Nc1c(C(=O)NC[C@@H](F)C(C)(C)O)cnn2cc(-n3ncc4cc(C#N)cnc43)cc12` [Example 39, (R)-6-(5-cyano-1H-pyrazolo[3,4-b]pyridin-1-yl)-N-(2-fluoro-3-hydroxy-3-methylbutyl)-4-(isopropylamino) pyrrolo[1,2-b]pyridazine-3-carboxamide], the half-maximal inhibitory concentration (IC50) on IRAK4 was determined as 21 nM. On JAK3 kinase, the IC50 was above 50000 nM and the “Ratio of JAK3 IC50 to IRAK4 IC50” value is reported as above 2381.

As to `CC(C)Nc1c(C(=O)N[C@H]2CC[C@H](N)CC2)cnn2cc(-c3cccnc3)cc12` [Example 52, N-((1r,4r)-4-aminocyclohexyl)-4-(isopropylamino)-6-(pyridin-3-yl)pyrrolo[1,2-b]pyridazine-3-carboxamide], on IRAK4, the IC50 turned out to be 40 nM. On JAK3 kinase, the IC50 was around 43000 nM and the “Ratio of JAK3 IC50 to IRAK4 IC50” value is on record as around 1075.

For the compound `CNC(=O)c1cncc(-c2cc3ncc(C(=O)NC[C@@H](F)C(C)(C)O)c(NC(C)C)n3n2)c1` [Example 156, (R)—N-(2-fluoro-3-hydroxy-3-methylbutyl)-7-(isopropylamino)-2-(5-(methylcarbamoyl)pyridin-3-yl)pyrazolo[1,5-a]pyrimidine-6-carboxamide], the IC50 was 910 nM on IRAK4 and above 10000 nM on JAK3 kinase. Also, the “Ratio of JAK3 IC50 to IRAK4 IC50” value on JAK3 kinase is listed as above 11.

Consider `Cc1ccc(-c2cc3ncc(C(=O)NC[C@@H](F)C(C)(C)O)c(NC(C)C)n3n2)cn1` [Example 131, (R)—N-(2-fluoro-3-hydroxy-3-methylbutyl)-7-(isopropylamino)-2-(6-methylpyridin-3-yl)pyrazolo[1,5-a]pyrimidine-6-carboxamide], for which, at IRAK4, the IC50 was 20 nM. For the same compound, at JAK3 kinase, the IC50 is above 50000 nM and the “Ratio of JAK3 IC50 to IRAK4 IC50” value is on record as above 2500.

Consider `CC(C)(O)[C@H](F)CNC(=O)c1cnn2cc(-c3nccs3)cc2c1NC1CCOCC1` [Example 19, (R)—N-(2-fluoro-3-hydroxy-3-methylbutyl)-4-((tetrahydro-2H-pyran-4-yl)amino)-6-(thiazol-2-yl) pyrrolo[1,2-b]pyridazine-3-carboxamide], for which the IC50 on IRAK4 is 15 nM; on JAK3 kinase, above 10000 nM. The “Ratio of JAK3 IC50 to IRAK4 IC50” value on JAK3 kinase is recorded as above 667.

For the compound `CC(=O)N[C@H]1CC[C@H](NC(=O)c2cnn3cc(-c4c(C)ccnc4F)cc3c2NC(C)C)CC1` [Example 66, N-((1r,4r)-4-acetamidocyclohexyl)-6-(2-fluoro-4-methylpyridin-3-yl)-4-(isopropylamino)pyrrolo[1,2-b]pyridazine-3-carboxamide], the IC50 stood at 59 nM at IRAK4 and 18000 nM on JAK3 kinase. The “Ratio of JAK3 IC50 to IRAK4 IC50” value at JAK3 kinase is 305.

The values above are taken from US12570659B2, “Bicyclic heteroaryl compounds useful as IRAK4 inhibitors” (BRISTOL-MYERS SQUIBB COMPANY, priority 2019, dated 2026).
